Measured values taken from paper PMC9995496, “A screen for MeCP2-TBL1 interaction inhibitors using a luminescence-based assay” (Scientific Reports, 2023).
Ends that are not written are not given here. * marks the point of attachment. Biotin = O=C1N[C@H]2[C@H](CS[C@H]2CCCCC(=O)*)N1

Biological target: T1, MeCP2-TBL1 interaction (MeCP2-SmBiT / TBL1-LgBiT) (Mus musculus, UniProt Q9QXE7)
T1 construct: expressed in transfected cells; crude lysate used as a cell-free assay
T1 sequence (Q9QXE7 166-527): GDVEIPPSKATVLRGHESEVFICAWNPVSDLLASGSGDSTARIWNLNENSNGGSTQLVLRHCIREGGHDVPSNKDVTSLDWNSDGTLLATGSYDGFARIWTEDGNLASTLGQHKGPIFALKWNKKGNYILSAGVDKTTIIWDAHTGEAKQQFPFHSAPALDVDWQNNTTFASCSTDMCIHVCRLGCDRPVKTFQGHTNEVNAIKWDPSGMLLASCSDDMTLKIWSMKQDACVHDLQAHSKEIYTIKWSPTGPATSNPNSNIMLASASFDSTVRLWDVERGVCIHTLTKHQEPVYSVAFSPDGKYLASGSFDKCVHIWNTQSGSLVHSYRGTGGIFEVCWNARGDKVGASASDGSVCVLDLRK
Test: MeCP2-TBL1 NanoLuc luciferase complementation assay (cell-free, extracts of transfected HEK293 cells)
Type: binding, human
Conditions: for inhibition in MeCP2-TBL1 assay compared with control PKA-based assay, individual validation / inhibition at 20 µM: 20 µM; for inhibition in MeCP2-TBL1 assay compared with control PKA-based assay, individual validation: n = 7, t-test; for extent of MeCP2-TBL1 inhibition reached within the tested concentration range / separation between MeCP2-TBL1 inhibition and inhibition of the PKA control in dose response: 0.3–60 μM; for separation between MeCP2-TBL1 inhibition and inhibition of the PKA control in dose response: PKA-based assay run in parallel; for inhibition at 20 µM: ApexBio library screen, threshold SSMD* ≥ 3, read-out: inhibition in MeCP2-TBL1 assay after adjusting for activity in the PRKACA-PRKAR2A assay; for IC50: dose response 0.3–60 μM, triplicate, 30 min, luminescence normalized to DMSO, read-out: IC50, inhibition of MeCP2-TBL1 luminescence signal
Summary of the method: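 Cell-free split NanoLuc: lysate of HEK293 cells co-expressing the MeCP2 C-terminal half-SmBiT and TBL1 WD domain-LgBiT, mixed 1:1 with furimazine. After 30 min at room temperature, luminescence was plate-median normalized.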

| Molecule | inhibition in MeCP2-TBL1 assay compared with control PKA-based assay, individual validation | extent of MeCP2-TBL1 inhibition reached within the tested concentration range | separation between MeCP2-TBL1 inhibition and inhibition of the PKA control in dose response | inhibition at 20 µM | IC50 | effect of competitor peptide on MeCP2-TBL1 luminescence signal (peptide at 20 µM, n = 2) |
| --- | --- | --- | --- | --- | --- | --- |
| CCNC(=O)c1noc(-c2cc(C(C)C)c(O)cc2O)c1-c1ccc(CN2CCOCC2)cc1 [luminespib, reference compound] | statistically significantly greater | without being able to completely inhibit MeCP2-TBL1 binding | clear separation | ≥ 35% | 31 µM |  |
| C=C1C(=O)[C@]23[C@H](O)[C@H]1CC[C@H]2[C@@]12CO[C@]3(O)[C@@H](O)[C@@H]1C(C)(C)CC[C@@H]2O [oridonin, reference compound] | statistically significantly greater |  | only modest selectivity | ≥ 35% | 34 µM |  |
| LSSWVLLMK [AAT, alpha-1 antitrypsin fragment 235–243, reference compound] | statistically significantly greater | able to return the luminesce signal back to baseline | clear separation | ≥ 35% |  |  |
| control peptide with the R306C mutation: 35 amino acid MeCP2 NID peptide (residues 285-319) carrying the R306C mutation, N-terminal biotin (Biotin-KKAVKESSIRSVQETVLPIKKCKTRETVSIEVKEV; UniProt P51608 285-319, looked up, variant R306C) [reference compound] |  |  |  |  |  | failed to substantially affect |
